The assay concerns Plasmodium berghei. Description: Luciferase/luciferin-expressing antifolate-resistant parasites were used to infect a culture of HepG2 cells that were pre-incubated with compounds. Infected hepatocytes emit light due to the luciferase reaction. Assay results are presented as the percent inhibition of light emission compared to control. […]. The format is functional. As to conditions: sporozoite; for IC90: read-out: LUCIFERASE INFECTION ASSAY - IC90.

One may read the IC50 as the point on the concentration scale where inhibition reaches its midpoint. Usually IC90 stands for the concentration needed for an effect of 90%. In the case of `Clc1cccc(Cl)c1/C=C/c1cc[nH]n1`, the 90% effect concentration (IC90) is greater than 13.8 µM. In addition, the concentration for half-maximal inhibition (IC50) (HEPG2TOX_HILL_SLOPE 3.46, HEPG2TOX_R_SQUARED 0.979, PBLUC_HILL_SLOPE 12.7, PBLUC_R_SQUARED 0.349, read-out: LUCIFERASE INFECTION ASSAY - IC50) came out at 12 µM.

Regarding `N=C(N)N/N=C/c1ccc(Cl)cc1Cl`, the IC90 is 5.8 µM. Further, where the note is “HEPG2TOX_HILL_SLOPE 3.43, HEPG2TOX_R_SQUARED 0.626, PBLUC_HILL_SLOPE 2.34, PBLUC_R_SQUARED 0.812, read-out: LUCIFERASE INFECTION ASSAY - IC50”, the IC50 was 2.27 µM.

In the case of `CCN(CC)c1ccc(NC(=O)CCc2ccccc2)cc1C`, the IC90 was found to be 6.81 µM. Also, the IC50 (HEPG2TOX_HILL_SLOPE 3.47, HEPG2TOX_R_SQUARED 0.947, PBLUC_HILL_SLOPE 2.46, PBLUC_R_SQUARED 0.836, read-out: LUCIFERASE INFECTION ASSAY - IC50) worked out at 2.79 µM.

On to `Cn1c(C(C#N)C(=O)c2cc(-c3ccccc3)nc3ccccc23)nc2ccccc21` (stereo unspecified), for which the IC90 is 7.46 µM. Also, the IC50 (HEPG2TOX_HILL_SLOPE 3.46, HEPG2TOX_R_SQUARED 0.527, PBLUC_HILL_SLOPE 3.86, PBLUC_R_SQUARED 0.794, read-out: LUCIFERASE INFECTION ASSAY - IC50) was found to be 4.22 µM.

In the case of `Nc1c(-c2ccccc2)c(CN2CCN(Cc3ccccc3)CC2)nn1-c1ccc(Cl)cc1`, the 90% effect concentration (IC90) was determined as 8.97 µM. Also, the 50% inhibitory concentration (IC50) (HEPG2TOX_HILL_SLOPE 3.47, HEPG2TOX_R_SQUARED 0.813, PBLUC_HILL_SLOPE 2.28, PBLUC_R_SQUARED 0.79, read-out: LUCIFERASE INFECTION ASSAY - IC50) worked out at 3.42 µM.

In the case of `COc1cc(NC(=O)Nc2cc(Cl)cc(Cl)c2)cc(C(F)(F)F)c1`, the concentration for an effect of 90% (IC90) came out at 0.748 µM. Besides, under “HEPG2TOX_HILL_SLOPE 3.42, HEPG2TOX_R_SQUARED 0.986, PBLUC_HILL_SLOPE 0.84, PBLUC_R_SQUARED 0.7, read-out: LUCIFERASE INFECTION ASSAY - IC50”, the half-maximal inhibitory concentration (IC50) amounted to 0.0547 µM.

Consider `CN(CCCNC(=O)CSc1nnc(-c2c[nH]c3ccccc23)n1C1CC1)c1ccccc1`, for which the IC90 was 9.32 µM. The concentration for half-maximal inhibition (IC50) (HEPG2TOX_HILL_SLOPE 3.48, HEPG2TOX_R_SQUARED 0.658, PBLUC_HILL_SLOPE 4.72, PBLUC_R_SQUARED 0.65, read-out: LUCIFERASE INFECTION ASSAY - IC50) was 5.85 µM.

Regarding `CC1Cc2cc(S(N)(=O)=O)ccc2N1C(=O)CN1CCCN(c2ccc(C(F)(F)F)cn2)CC1` (stereo unspecified), the IC90 is greater than 10 µM. For the setting “HEPG2TOX_HILL_SLOPE 3.49, HEPG2TOX_R_SQUARED 0.873, read-out: LUCIFERASE INFECTION ASSAY - IC50”, the IC50 is greater than 10 µM.

Consider `OCc1cccc(-c2cnc3ccc(-c4ccccc4)nn23)c1`, for which the IC90 came out at 7.66 µM. Besides, the IC50 (HEPG2TOX_HILL_SLOPE 3.47, HEPG2TOX_R_SQUARED 0.7, PBLUC_HILL_SLOPE 5.19, PBLUC_R_SQUARED 0.0412, read-out: LUCIFERASE INFECTION ASSAY - IC50) was determined as 5.02 µM.

For `COc1ccc2cc(C(C)C(=O)N/N=C/c3ccccc3O)ccc2c1` (stereo unspecified), the concentration for an effect of 90% (IC90) is greater than 9.47 µM. In addition, the IC50 (HEPG2TOX_HILL_SLOPE 3.47, HEPG2TOX_R_SQUARED 0.909, PBLUC_HILL_SLOPE 4.89, PBLUC_R_SQUARED 0.506, read-out: LUCIFERASE INFECTION ASSAY - IC50) was determined as 6.69 µM.

`c1ccc(C[n+]2ccc(-c3ncc(-c4ccc5ccccc5c4)o3)cc2)cc1`: the IC90 came out at 4.15 µM. Where the note is “HEPG2TOX_HILL_SLOPE 3.46, HEPG2TOX_R_SQUARED 0.77, PBLUC_HILL_SLOPE 12.4, 9.50, PBLUC_R_SQUARED 0.642, 0.816, read-out: LUCIFERASE INFECTION ASSAY - IC50”, the IC50 was determined as 3.38 µM.

Consider `O=C(Cn1cnc2c(cnn2-c2ccccc2)c1=O)c1c[nH]c2ccccc12`, for which the IC90 was greater than 10 µM. Besides, the IC50 (HEPG2TOX_HILL_SLOPE 3.41, HEPG2TOX_R_SQUARED 0.825, PBLUC_HILL_SLOPE 1.56, PBLUC_R_SQUARED 0.738, read-out: LUCIFERASE INFECTION ASSAY - IC50) was 2.81 µM.

Consider `CN(C)CCCNC(=O)c1ccc(-c2cn3c(-c4ccc(Cl)cc4)cnc3cn2)cc1`, for which the IC90 came to 3.76 µM. Further, the 50% inhibitory concentration (IC50) (HEPG2TOX_HILL_SLOPE 3.47, HEPG2TOX_R_SQUARED 0.818, PBLUC_HILL_SLOPE 9.43, PBLUC_R_SQUARED 0.518, read-out: LUCIFERASE INFECTION ASSAY - IC50) is 2.98 µM.

Turning to `CCn1c2ccccc2c2cc(NC(=O)c3ccncc3)ccc21`, the IC90 was determined as 3.82 µM. In addition, the half-inhibitory concentration (IC50) (HEPG2TOX_HILL_SLOPE 3.45, HEPG2TOX_R_SQUARED 0.806, PBLUC_HILL_SLOPE 11.3, PBLUC_R_SQUARED 0.493, read-out: LUCIFERASE INFECTION ASSAY - IC50) worked out at 3.14 µM.

As for `O=C(Nc1cccc2ccccc12)N1CCN(c2ncccc2C(F)(F)F)CC1`, the IC90 was determined as 0.105 µM. For the same compound, the 50% inhibitory concentration (IC50) (HEPG2TOX_HILL_SLOPE 3.44, HEPG2TOX_R_SQUARED 0.402, PBLUC_HILL_SLOPE 82.3, PBLUC_R_SQUARED 0.563, read-out: LUCIFERASE INFECTION ASSAY - IC50) amounted to 0.102 µM.

`N#Cc1ccc(-c2ccc3nnc(-c4cccc(C(F)(F)F)c4)n3c2)cc1`: the IC90 was determined as 7.29 µM. Besides, the half-maximal inhibitory concentration (IC50) (HEPG2TOX_HILL_SLOPE 3.44, HEPG2TOX_R_SQUARED 0.706, PBLUC_HILL_SLOPE 4.37, PBLUC_R_SQUARED 0.179, read-out: LUCIFERASE INFECTION ASSAY - IC50) amounted to 4.41 µM.

Consider `CCc1ccc(S(=O)(=O)N2[C@@H]3CC[C@@H](C3)[C@H]2c2nc3c(OC(C)C)cccc3[nH]2)cc1`, for which the IC90 was greater than 10 µM. In addition, for the setting “HEPG2TOX_HILL_SLOPE 3.46, HEPG2TOX_R_SQUARED 0.87, PBLUC_HILL_SLOPE 16.2, PBLUC_R_SQUARED 0.535, read-out: LUCIFERASE INFECTION ASSAY - IC50”, the IC50 is 9.38 µM.

As to `COc1ccc(-c2cnc3cnc(-c4ccsc4)cn23)cc1`, the concentration for an effect of 90% (IC90) is 4.82 µM. Where the note is “HEPG2TOX_HILL_SLOPE 3.46, HEPG2TOX_R_SQUARED 0.703, PBLUC_HILL_SLOPE 8.9, PBLUC_R_SQUARED 0.737, read-out: LUCIFERASE INFECTION ASSAY - IC50”, the IC50 came to 3.76 µM.

On to `Cc1cc(C(C)(C)C)cc(C(C)(C)C)[s+]1`, for which the IC90 turned out to be 7.78 µM. The IC50 (HEPG2TOX_HILL_SLOPE 3.48, HEPG2TOX_R_SQUARED 0.99, PBLUC_HILL_SLOPE 2.71, PBLUC_R_SQUARED 0.511, read-out: LUCIFERASE INFECTION ASSAY - IC50) came to 3.46 µM.

For `CCN1C(=O)N(C2Cc3ccccc3C2)C(=O)C12CCN(Cc1cc3ccccc3[nH]1)CC2`, the IC90 was greater than 7.46 µM. Moreover, where the note is “HEPG2TOX_HILL_SLOPE 3.47, HEPG2TOX_R_SQUARED 0.984, PBLUC_HILL_SLOPE 2.65, PBLUC_R_SQUARED 0.483, read-out: LUCIFERASE INFECTION ASSAY - IC50”, the concentration for half-maximal inhibition (IC50) was 3.77 µM.

With `O=C(OCc1csc(-c2ccccc2)n1)c1cc([N+](=O)[O-])ccc1N1CCC(Cc2ccccc2)CC1`, the IC90 is greater than 10 µM. For the setting “HEPG2TOX_HILL_SLOPE 3.49, HEPG2TOX_R_SQUARED 0.926, PBLUC_HILL_SLOPE 12.2, PBLUC_R_SQUARED 0.465, read-out: LUCIFERASE INFECTION ASSAY - IC50”, the half-inhibitory concentration (IC50) was determined as 8.99 µM.

`CC(NC(=O)c1nc(-c2ccccc2)n(-c2ccccc2)n1)C12CC3CC(CC(C3)C1)C2` (stereo unspecified): the IC90 was found to be 5.28 µM. Moreover, the half-inhibitory concentration (IC50) (HEPG2TOX_HILL_SLOPE 3.46, HEPG2TOX_R_SQUARED 0.871, PBLUC_HILL_SLOPE 90.3, PBLUC_R_SQUARED 0.516, read-out: LUCIFERASE INFECTION ASSAY - IC50) was determined as 5.15 µM.

In the case of `Cc1ccc2nc(NC(=O)c3ccc(Cl)cc3)c(C(=O)NC3CCCC3)n2c1`, the IC90 came to 3.09 µM. The half-maximal inhibitory concentration (IC50) (HEPG2TOX_HILL_SLOPE 3.44, HEPG2TOX_R_SQUARED 0.175, PBLUC_HILL_SLOPE 15.5, PBLUC_R_SQUARED 0.331, read-out: LUCIFERASE INFECTION ASSAY - IC50) amounted to 2.68 µM.

For `CCOC(=O)c1cc(NC(=O)Nc2ccc(Cl)c(Cl)c2)ccc1Oc1cncc(Cl)c1`, the concentration for an effect of 90% (IC90) was found to be 4.18 µM. Also, the IC50 (HEPG2TOX_HILL_SLOPE 3.45, HEPG2TOX_R_SQUARED 0.989, PBLUC_HILL_SLOPE 3.28, PBLUC_R_SQUARED 0.474, read-out: LUCIFERASE INFECTION ASSAY - IC50) was 2.14 µM.

For the compound `O=C(Nc1ccc(Cl)cc1)c1cc(-c2ccccc2)c(C(F)(F)F)s1`, the IC90 amounted to 6.06 µM. The IC50 (HEPG2TOX_HILL_SLOPE 3.44, HEPG2TOX_R_SQUARED 0.918, PBLUC_HILL_SLOPE 6.48, PBLUC_R_SQUARED 0.174, read-out: LUCIFERASE INFECTION ASSAY - IC50) was found to be 4.32 µM.

On to `O=c1c(Cl)c(Cl)cnn1-c1ccc(F)c(Cl)c1`, for which the IC90 came out at 4.35 µM. Also, the IC50 (HEPG2TOX_HILL_SLOPE 3.48, HEPG2TOX_R_SQUARED 0.867, PBLUC_HILL_SLOPE 16.6, PBLUC_R_SQUARED 0.498, read-out: LUCIFERASE INFECTION ASSAY - IC50) was found to be 3.81 µM.

In the case of `CS(=O)(=O)c1ncc(Cl)c(C(=O)C(C#N)c2ccc3ccccc3n2)n1` (stereo unspecified), the IC90 stood at 4.88 µM. In addition, where the note is “HEPG2TOX_HILL_SLOPE 3.45, HEPG2TOX_R_SQUARED 0.508, PBLUC_HILL_SLOPE 8.67, PBLUC_R_SQUARED 0.634, read-out: LUCIFERASE INFECTION ASSAY - IC50”, the 50% inhibitory concentration (IC50) was 3.78 µM.

With `COC(=O)c1cnc(NC(=O)/C=C/c2ccc([N+](=O)[O-])o2)s1`, the IC90 is greater than 10 µM. Moreover, the half-maximal inhibitory concentration (IC50) (HEPG2TOX_HILL_SLOPE 3.5, HEPG2TOX_R_SQUARED 0.48, read-out: LUCIFERASE INFECTION ASSAY - IC50) was greater than 10 µM.

Source of the values: ChEMBL document CHEMBL4483862, “Open-source discovery of chemical leads for next-generation chemoprotective antimalarials” (2018).
